Test results published in US20150094474A1, “AGRICULTURAL CHEMICALS” (Redx Pharma Ltd., priority 2012, published 2015).

Assays:
barley = assay: Herbicidal bioassay, barley (% necrosis); format: in vivo
Procedure, shortened: (§1)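 Scoring of % necrosis followed EPPO guideline PP1/135 at specified growth intervals, five replicates per species and treatment. Plants at the 2-4 true leaf stage received Potter-tower sprays of DMSO-diluted compounds across six levels from 0.0001% to 0.05%, with water and DMSO controls.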

peas = assay: Herbicidal bioassay, peas (% necrosis); format: in vivo
Procedure, shortened: as §1

CCOC(=O)C(C)Oc1ccc(Oc2ccc(C(F)(F)F)cn2)cc1 (stereo not drawn) [Fluazifop Ethyl ester (62)]
Sum of % necrosis in barley (barley; Dose 0.00005, Day 0): C (less than 50% necrosis) | Sum of % necrosis in barley (barley; Dose 0.00005, Day 1): C (less than 50% necrosis) | Sum of % necrosis in barley (barley; Dose 0.00005, Day 3): C (less than 50% necrosis) | Sum of % necrosis in barley (barley; Dose 0.00005, Day 7): C (less than 50% necrosis) | Sum of % necrosis in barley (barley; Dose 0.00005, Day 10): C (less than 50% necrosis) | Sum of % necrosis in barley (barley; Dose 0.00005, Day 14): C (less than 50% necrosis) | Sum of % necrosis in barley (barley; Dose 0.00005, Day 21): B (50%-80% necrosis) | Sum of % necrosis in barley (barley; Dose 0.0001, Day 0): C (less than 50% necrosis) | Sum of % necrosis in barley (barley; Dose 0.0001, Day 1): C (less than 50% necrosis) | Sum of % necrosis in barley (barley; Dose 0.0001, Day 3): C (less than 50% necrosis) | Sum of % necrosis in barley (barley; Dose 0.0001, Day 7): C (less than 50% necrosis) | Sum of % necrosis in barley (barley; Dose 0.0001, Day 10): C (less than 50% necrosis) | Sum of % necrosis in barley (barley; Dose 0.0001, Day 14): C (less than 50% necrosis) | Sum of % necrosis in barley (barley; Dose 0.0001, Day 21): A (over 80% necrosis) | Sum of % necrosis in barley (barley; Dose 0.0005, Day 0): C (less than 50% necrosis) | Sum of % necrosis in barley (barley; Dose 0.0005, Day 1): C (less than 50% necrosis) | Sum of % necrosis in barley (barley; Dose 0.0005, Day 3): C (less than 50% necrosis) | Sum of % necrosis in barley (barley; Dose 0.0005, Day 7): C (less than 50% necrosis) | Sum of % necrosis in barley (barley; Dose 0.0005, Day 10): C (less than 50% necrosis) | Sum of % necrosis in barley (barley; Dose 0.0005, Day 14): C (less than 50% necrosis) | Sum of % necrosis in barley (barley; Dose 0.0005, Day 21): A (over 80% necrosis) | Sum of % necrosis in Peas (peas; Dose 0.000001, Day 0): C (less than 50% necrosis) | Sum of % necrosis in Peas (peas; Dose 0.000001, Day 1): C (less than 50% necrosis) | Sum of % necrosis in Peas (peas; Dose 0.000001, Day 3): C (less than 50% necrosis) | Sum of % necrosis in Peas (peas; Dose 0.000001, Day 7): C (less than 50% necrosis) | Sum of % necrosis in Peas (peas; Dose 0.000001, Day 10): C (less than 50% necrosis) | Sum of % necrosis in Peas (peas; Dose 0.000001, Day 14): C (less than 50% necrosis) | Sum of % necrosis in Peas (peas; Dose 0.000001, Day 21): C (less than 50% necrosis) | Sum of % necrosis in Peas (peas; Dose 0.000005, Day 0): C (less than 50% necrosis) | Sum of % necrosis in Peas (peas; Dose 0.000005, Day 1): C (less than 50% necrosis) | Sum of % necrosis in Peas (peas; Dose 0.000005, Day 3): C (less than 50% necrosis) | Sum of % necrosis in Peas (peas; Dose 0.000005, Day 7): C (less than 50% necrosis) | Sum of % necrosis in Peas (peas; Dose 0.000005, Day 10): C (less than 50% necrosis) | Sum of % necrosis in Peas (peas; Dose 0.000005, Day 14): B (50%-80% necrosis) | Sum of % necrosis in Peas (peas; Dose 0.000005, Day 21): B (50%-80% necrosis) | Sum of % necrosis in Peas (peas; Dose 0.00001, Day 0): C (less than 50% necrosis) | Sum of % necrosis in Peas (peas; Dose 0.00001, Day 1): C (less than 50% necrosis) | Sum of % necrosis in Peas (peas; Dose 0.00001, Day 3): C (less than 50% necrosis) | Sum of % necrosis in Peas (peas; Dose 0.00001, Day 7): C (less than 50% necrosis) | Sum of % necrosis in Peas (peas; Dose 0.00001, Day 10): B (50%-80% necrosis) | Sum of % necrosis in Peas (peas; Dose 0.00001, Day 14): A (over 80% necrosis) | Sum of % necrosis in Peas (peas; Dose 0.00001, Day 21): A (over 80% necrosis) | Sum of % necrosis in Peas (peas; Dose 0.00005, Day 0): C (less than 50% necrosis) | Sum of % necrosis in Peas (peas; Dose 0.00005, Day 1): C (less than 50% necrosis) | Sum of % necrosis in Peas (peas; Dose 0.00005, Day 3): C (less than 50% necrosis) | Sum of % necrosis in Peas (peas; Dose 0.00005, Day 7): C (less than 50% necrosis) | Sum of % necrosis in Peas (peas; Dose 0.00005, Day 10): B (50%-80% necrosis) | Sum of % necrosis in Peas (peas; Dose 0.00005, Day 14): A (over 80% necrosis) | Sum of % necrosis in Peas (peas; Dose 0.00005, Day 21): A (over 80% necrosis) | Sum of % necrosis in Peas (peas; Dose 0.0001, Day 0): C (less than 50% necrosis) | Sum of % necrosis in Peas (peas; Dose 0.0001, Day 1): C (less than 50% necrosis) | Sum of % necrosis in Peas (peas; Dose 0.0001, Day 3): C (less than 50% necrosis) | Sum of % necrosis in Peas (peas; Dose 0.0001, Day 7): C (less than 50% necrosis) | Sum of % necrosis in Peas (peas; Dose 0.0001, Day 10): B (50%-80% necrosis) | Sum of % necrosis in Peas (peas; Dose 0.0001, Day 14): A (over 80% necrosis) | Sum of % necrosis in Peas (peas; Dose 0.0001, Day 21): A (over 80% necrosis) | Sum of % necrosis in Peas (peas; Dose 0.0005, Day 0): C (less than 50% necrosis) | Sum of % necrosis in Peas (peas; Dose 0.0005, Day 1): C (less than 50% necrosis) | Sum of % necrosis in Peas (peas; Dose 0.0005, Day 3): C (less than 50% necrosis) | Sum of % necrosis in Peas (peas; Dose 0.0005, Day 7): C (less than 50% necrosis) | Sum of % necrosis in Peas (peas; Dose 0.0005, Day 10): C (less than 50% necrosis) | Sum of % necrosis in Peas (peas; Dose 0.0005, Day 14): C (less than 50% necrosis) | Sum of % necrosis in Peas (peas; Dose 0.0005, Day 21): A (over 80% necrosis)
